These results are taken from US20130052654A1, “Amyloid Precursor Protein E2 Domain and Uses Thereof” (Leibniz Institute For Age Research - Fritz Lipmann …, priority 2011, published 2013).

Where “and” joins values, the source holds several entries; their conditions need not be identical. Equal values may be shown once. Read-outs that look alike come from different tables or passages of the source. Marks after values point to notes of the source that are not given here.

Series [1] concerns the target T1, full length APP (Homo sapiens, UniProt P05067).
T1 construct: previously reported for full length APP (0.75 μM) (Bush et al., 1993)
The following applies: cited from earlier work.

For series [2], the target named is T2, APP-E2 (Homo sapiens, UniProt P05067).
T2 construct: APP-E2 comprising Ser295-Asp500 (numbering according to APP695); hexa-histidine tag (C, cleaved yes); made in house; host or cells: E. coli BL21(DE3)pRIL
Kind of series: CD-spectroscopy melting curves of APP-E2 at 222 nm. It counts as binding. The following applies: 7.5 μM APP-E2, 10 μM metal; inflection point of CD melting curve at 222 nm. Here is the method: CD-data were collected on a J-710 spectropolarimeter (Jasco Corporation) in the same buffers used for ITC binding studies adding 7.5 μM APP-E2 and 10 μM zinc or copper. CD-signals were measured at 222 nm upon heating (1° C./min) of the samples from 20° C. to 90° C. The blank signals produced by the buffers at 20° C. were subtracted as constant values from the melting curves. Indicated melting points correspond to the inflection points of the melting curves determined from the peak of the 1st order derivative calculated using spectra analysis software (Jasco Corporation).

Series [3] concerns the target T2, APP-E2. Kind of series: Limited proteolysis with Trypsin. Type of series: biochemical. The following applies: 40 μM metal, 20 μM protein, 0.5 μg/ml Trypsin. The protocol:
Limited proteolysis was performed in 20 mM HEPES, 150 mM NaCl at pH 7.4 containing 0.5 μg/ml Trypsin (Calbiochem) and 20 μM purified protein (α-casein as control). Copper or zinc were supplemented at 40 μM to the Samples. Reactions were stopped after 30 and […] by addition of 10 mM PMSF and analyzed by SDS-PAGE. Protease cleavage sites were characterized by Edman sequencing (Procise 494A, Applied Biosystems, Foster City, Calif., USA). Limited proteolysis results shown were reproduced in three independent experiments.

Series [4] deals with T2, APP-E2. Kind of series: Isothermal titration calorimetry (ITC) of metal binding to APP-E2. The conditions noted are these: for n1: ITC stoichiometry, first site; for dH1: Cu in Tris, Zn in Hepes, pH 7.3. Here is the method:
ITC was performed at the same conditions as the metal retention assays in a NANO ITC calorimeter (TA Instruments, USA) adding 0.4 mM CuCl2 in 6 μl injections or 0.4 mM ZnCl2 in 11 μl injections to the cell containing 40 μM protein. Blank enthalphies for titrations of metals in buffer were subtracted from peak integrals. Binding constants were calculated with the NanoAnalyze program (TA Instruments, USA) using a model for a single set of identical binding sites in the case of copper binding. In the case of zinc binding the enthalpic data were fitted to a binding model representing two sets of independent binding sites, accounting for 1 strong binding site and 3.3 weak binding sites (4.3 total Zn^2+ sites) per protein molecule (for further details see supplementary data). All titrations were performed in triplicate. The initially determined KDapp of the APP-E2/Cu complex had to be corrected for competition with the copper ligand Tris (Hatcher et al., 2008) and its pH-dependent protonation. The exact coordination chemistry of Cu^2+ by Tris is, unfortunately, not precisely known, e.g. tertiary Cu(Tris)2 and quinary Cu(Tris)4 complexes are described in the literature. However, all models agree about the formation of a binary Tris-Cu^2+ complex, described by a formation constant pK1(Tris) of ˜4. The corrected KD was calculated according to KD=KDapp(1+ cTris×10^pK^1(Tris)/(1+10^−pH×Ka))^−1 using pK1(Tris)=3.82 (Canepari et al., 1999) and pKa(Tris)=8.1.
The effect of excessive zinc to protein ratios was studied in ITC experiments in three repeating titrations into the same cell solution. Titration was performed in 20 mM Hepes/NaOH pH 7.3, 150 mM NaCl at 20° C., adding a 0.8 mM ZnCl2 solution in 3×22 injections to 40 μM APP-E2, resulting in a final Zn^2+/protein ratio of 22. The molar ratios for titration experiment 2 and 3 were calculated neglecting intermixture of cell volume and slight volume changes occurring after refill of the syringe. Blank enthalphies for titrations of metals in buffer were subtracted from peak integrals.
A general note: In ITC the heat of successive injections is recorded.

Series [5] addresses T2, APP-E2. Kind of series: Metal retention assay (ultrafiltration). Type of series: binding. The following applies: 50 μM APP-E2, 75 μM metal, concentrated 8-fold. The protocol:
50 μM APP-E2 (without His-tag) and 75 μM CuCl2 in 50 mM Tris/HCl pH 7.3, 150 mM NaCl or 75 μM ZnCl2 in 20 mM Hepes/NaOH pH 7.3, 150 mM NaCl was concentrated 8-fold at 20° C. using Vivaspin 500 ultrafiltration devices with 5.000 MWCO PES membranes (Sartorius stedim biotech). Samples without protein, or containing 50 μM lysozyme instead of APP-E2, served as controls. Metal ions in the retenate were quantified by a spectrophotometric method (Sabel et al., 2010). Each experiment was performed in triplicate and the average ratio of the change in concentration relative to the starting concentration (c-c0/c0) was plotted.

In series [6] the target is T2, APP-E2. Description: Determination of total Zn2+ binding sites on APP-E2. The protocol:
The protein was saturated with 10 mM ZnCl2 in 20 mM Hepes/NaOH pH 7.3, 150 mM NaCl resulting in quantitative precipitated of the protein. The precipitate was washed with buffer until a stable equilibrium ratio of zinc saturated protein in the liquid phase and the solid phase was reached. The concentration of Zn (Sabel et al., 2010) and protein (Bradford, 1976) were determined after each wash step in the liquid phase (supernatant) after […] centrifugation at 16,000 g. The ratio between [Zn^2+] and [APP-E2] at equilibrium conditions corresponds to the total number of zinc binding sites per protein molecule, which was determined to be 4.3+/−0.2 (FIG. 10B). Subtraction of one strong intra-molecular binding site yields the number of intermolecular binding sites of as 3.3.

Series [7] addresses T2, APP-E2. Description: GPC and GPC coupled SLS, oligomerization state with heparin. It counts as binding. The following applies: 50 μM APP-E2, 100 μM heparin; for MWSLS of APP-E2: GPC coupled SLS, absolute molecular weight; for MWrh of APP-E2: GPC, apparent molecular weight. The protocol: Analytical GPC and SLS studies were performed in 150 mM NaCl, 10 mM Sodium phosphate buffer, pH 7.3, on a calibrated (MWGF70, Sigma) Superdex200 10/300 GL column (GE Healthcare) using 50 μM APP-E2. Where applicable, a ˜3.6 kDa heparin preparation (Reviparin-Sodium, Abott) was added at 100 μM to the protein and the buffer. SLS data were recorded using VE 3580 RI and 270 Dual detectors (Viscotek, USA) and analyzed using software provided by the manufacturer. Given data represent average values±standard deviation of three independent experiments.

Series [8] deals with the molecule itself. Kind of series: gel permeation chromatography and GPC-coupled static light scattering, without and with low molecular weight heparin (self-association test). The protocol:
All intermolecular contacts identified in the crystals analysed with the PISA server (Krissinel and Henrick, 2007) result from crystal packing, evidenced by the calculated complexation significance scores (CSS) that are equal to 0. Consequently, the protomer contacts are predominantly stabilized by the intermolecular coordinated cadmium ions. […] To investigate this observation further, the apparent molecular weight was determined based on the hydrodynamic radius (MWᵣₕ) using gel permeation chromatography (GPC) as well as the absolute molecular weight (MWSLS) employing GPC coupled static light scattering (SLS; Supplementary Figure S2). […] The influence of heparin on the oligomerization state of the E2 domain, which was described to promote dimer formation (Lee et al., 2011), was tested.

T1 sequence (P05067 18-770, species assumed): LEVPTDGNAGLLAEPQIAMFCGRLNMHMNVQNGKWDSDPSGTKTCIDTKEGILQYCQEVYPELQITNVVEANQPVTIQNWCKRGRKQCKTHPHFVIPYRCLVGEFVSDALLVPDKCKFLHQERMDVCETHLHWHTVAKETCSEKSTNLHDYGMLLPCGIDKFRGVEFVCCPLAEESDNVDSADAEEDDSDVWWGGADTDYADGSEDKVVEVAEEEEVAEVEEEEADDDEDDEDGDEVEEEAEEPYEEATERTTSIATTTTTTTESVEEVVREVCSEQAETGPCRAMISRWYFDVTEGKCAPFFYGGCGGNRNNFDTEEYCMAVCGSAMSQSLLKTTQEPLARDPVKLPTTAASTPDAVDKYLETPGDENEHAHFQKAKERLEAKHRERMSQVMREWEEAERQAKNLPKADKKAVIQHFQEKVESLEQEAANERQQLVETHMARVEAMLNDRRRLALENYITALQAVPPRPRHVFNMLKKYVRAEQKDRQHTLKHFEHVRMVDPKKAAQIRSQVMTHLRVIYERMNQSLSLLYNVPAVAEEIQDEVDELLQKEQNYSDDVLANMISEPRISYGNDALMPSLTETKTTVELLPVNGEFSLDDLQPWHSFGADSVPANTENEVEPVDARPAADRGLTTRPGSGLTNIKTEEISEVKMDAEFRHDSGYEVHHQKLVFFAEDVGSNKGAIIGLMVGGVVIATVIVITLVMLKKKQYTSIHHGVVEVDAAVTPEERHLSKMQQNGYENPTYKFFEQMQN

As for `[Cu+2]` [Cu^2+, copper], the Kd in series [1] (Hesse et al., 1994, read-out: dissociation constant for full length APP (copper)) is 0.01 µM; in series [4] (intersection point with the ordinate, 15-75 mM Tris, read-out: KD from linear extrapolation of apparent KD as function of Tris concentration), around 0.02 µM; in series [4] (minimal model of a Cu2+-Tris 1:1 complex, upper (weakest) limit, listed as copper, read-out: KD corrected for Tris competition), at most 0.013 µM; in series [4] (minimal model of a Cu2+-Tris 1:1 complex, upper (weakest) limit, read-out: KD corrected for Tris competition), below 0.013 µM. For the same molecule, in series [2], the “melting temperature of APP-E2” value is 61.0±0.0 °C. Further, the “effect on Trypsin cleavage of APP-E2” value in series [3] was “stabilizes especially fragment 1”. The molecule further came in with a n1 in series [4] of 0.70 ± 0.03. The same molecule showed a dH1 in series [4] (ITC) of -4.76 ± 0.22 kcal/mol. In addition, in series [5], the “retention of metal ions upon APP-E2 concentration” value is given as “accumulated in the retenate”.

As to `[Zn+2]` [Zn^2+, zinc], the Kd in series [1] (Bush et al., 1993, read-out: dissociation constant for full length APP (zinc)) was 0.75 µM; in series [4] (ITC, 20 mM Hepes/NaOH pH 7.3, 150 mM NaCl, two sets of independent sites, strong site, listed as zinc, read-out: KD1, Zn-APP-E2), at most 3.9 µM; in series [4] (ITC, 20 mM Hepes/NaOH pH 7.3, 150 mM NaCl, two sets of independent sites, strong site, read-out: KD1, Zn-APP-E2), 3.9 ± 1.5 µM; in series [4] (ITC, Hepes pH 7.3, weak sites, not statistically significant in curve fit, listed as zinc, read-out: KD2, Zn-APP-E2), at most 2600 µM; in series [4] (ITC, Hepes pH 7.3, weak sites, not statistically significant in curve fit, read-out: KD2, Zn-APP-E2), 2600 µM. Further, in series [6] (ratio [Zn2+]/[APP-E2] at equilibrium after wash steps), the “total number of zinc binding sites per protein molecule” value was 4.3+/−0.2 and 4.3. Moreover, the “number of weak (intermolecular) zinc binding sites” value in series [6] (total minus one strong intramolecular site) was determined as 3.3. Also, in series [2], the “melting temperature of APP-E2” value was 64.2±0.3 °C. The “effect on Trypsin cleavage of APP-E2” value in series [3] is listed as “Trypsin cleavage at Arg385 completely disappeared”. In series [4] (ITC competition), the “exothermic zinc binding reaction with copper pre-saturated APP-E2” value is “completely missing”. This molecule returned a n1 in series [4] of 0.7 ± 0.2. In series [4] (ITC), this molecule gave a dH1 of -3.97 ± 0.14 kcal/mol. Moreover, the n2 in series [4] (weak sites, determined independently and fixed during curve fit) is listed as 3.3^b. Further, the “retention of metal ions upon APP-E2 concentration” value in series [5] was “accumulated in the retenate”.

As for Reviparin-Sodium [HP], in series [7], the “MWSLS of APP-E2” value came to 31.6 ± 0.2 kDa and the “MWrh of APP-E2” value is recorded as 39.2 ± 0.4 kDa. In series [7] (listed as Clivarin), the “MWSLS of APP-E2” value is reported as 31.6 kDa and the “MWrh of APP-E2” value is listed as 39.2 kDa.

B1: APP-E2 comprising Ser295-Asp500 (numbering according to APP695) (other)
chain: STPDAVDKYLETPGDENEHAHFQKAKERLEAKHRERMSQVMREWEEAERQAKNLPKADKKAVIQHFQEKVESLEQEAANERQQLVETHMARVEAMLNDRRRLALENYITALQAVPPRPRHVFNMLKKYVRAEQKDRQHTLKHFEHVRMVDPKKAAQIRSQVMTHLRVIYERMNQSLSLLYNVPAVAEEIQDEVDELLQKEQNYSDD
notes: The C-terminal His tag was cleaved for the biochemical studies; also called E2 domain; human APP-E2 domain; not shown: a few non-native C-terminal residues left after the hexa-histidine tag was cleaved off (factor Xa or V8 protease); their
Turning to B1, the binding result in series [8] is reported as “no binding (tested: 50 µM APP-E2)”.
